Measured values reported in US20260097051A1, “CANNA[…] A T[…] FOR COVID-19” (AUGUSTA UNIVERSITY RESEARCH INSTITUTE, INC., priority 2021, published 2026).
Entries after “also recorded” stand apart in the source; their conditions may differ.

How the values were obtained:
[1] = target: transient receptor potential (TRP) ankyrin 1-type (TRPA1) channels (Rattus norvegicus, UniProt Q6RI86); details: De Petrocellis et al., 2008; 2011; cited from earlier work
[2] = tested on: endocannabinoid cellular reuptake; details: Ligresti et al., 2006; cited from earlier work
[3] = tested on: monoacylglycerol lipase (MAGL); details: De Petrocellis et al., 2011; cited from earlier work
[4] = tested on: Poly(I:C)-induced ARDS in C57BL/6 mice; test: Poly(I:C)-induced ARDS mouse model, CBC treatment
Protocol: Animal model and application of Poly(I:C) and CBC: Wild-type (WT) C57BL/6 mice (male, 12 weeks old) were divided into 3 experimental groups of sham, control and treatment (n=5). […] All mice were anesthetized with isoflurane. Sham group received PBS while control and treatment groups were administered by Poly(I:C) (Sigma Aldrich, USA) (100 μg in 50 μl sterile PBS) intranasally (I/N) three once-daily doses. CBC (isolate THC free) was delivered intraperitoneally (5mg/kg), first dose two hours after the second Poly(I:C) treatment and every other day interval, total of 3 doses. Sham and control groups received PBS only. All mice were sacrificed at 8 days after the first Poly(I:C) application. Blood and lung tissues were harvested and subjected to the further analysis.
Measurement of vital signs: Vital signs including temperature, Blood O2 saturation were measured prior and post of any treatment. Central body temperature was measured rectally and blood oxygen saturation was determined using portable pulse oximetry through carotid arteries.
Histology and immunohistochemistry: Left lobes of lung tissue were fixed in 10% neutral buffered formalin. Samples were processed by routine methods, oriented so as to provide coronal sections and 5 micron mid-coronal sections cut and stained with hematoxylin & eosin, Trichrome for histology. As for inflammatory indices, immunohistochemistry was performed by incubating the samples with specific antibodies against murine IL-6 (Cat #554402, BD BioSciences Pharmingen) and Neutrophils (Cat #G102, Leinco Technologies). Preparations were counterstained with hematoxylin (catalog no. 7221; Richard-Allan Scientific, Kalamazoo, MI, USA) and mounted in Faramount (catalog no. S3025, DAKO), analyzed and imaged by brightfield microscopy.
Analytical Flow Cytometry: Single cell suspension was prepared from lung tissues. Briefly, tissue samples were sieved through a 100 μM cell strainer (BD Biosciences, San Diego, CA), followed by centrifugation (1,000 rpm, 10 min) to prepare single-cell suspensions. All cells were then stained with fluorescent antibodies to quantify neutrophils, macrophages, lymphocytes and cytokine expression. Briefly, all cells were stained with anti-Gr1 (Neutrophils), Anti-F4/80 (Macrophages), and anti-CD3/CD4/CD8 (Lymphocytes, all from Biolegend USA). Then cells were fixed and permeabilized and stained intracellularly for cytokines including IL-6, TNFα, IL-2, and IFNγ (Proinflammatory cytokines). All samples were run through a 4-Laser LSR II flow cytometer. Cells were gated based on forward and side scatter properties and on marker combinations to select cells of interest. All acquired flow cytometry data were analyzed using the FlowJo V10.
Statistical analysis: Graphs and summary statistics were also used to assess the results. All statistical tests were 2-sided. Except for where noted, all p-values presented are unadjusted for multiple comparisons.

[5] = tested on: Poly(I:C)-induced ARDS in C57BL/6 mice; test: Poly(I:C)-induced ARDS mouse model, CBD treatment
Protocol: Animal model and application of Poly(I:C) and CBC: Adult (12 weeks) male C57B1/6 mice were block randomized into one of three experimental groups (n=10 mice/group) by a blinded investigator. Group I received intranasal, once daily administration of sterile saline for three consecutive days to serve as a control. Group II received intranasal, once daily administration of Poly I:C (100 μg in 50 μL in sterile saline) for three consecutive days to mimic ARDS. Group III received intranasal, once daily administration of Poly I:C (100 μg in 50 μL in sterile saline) for three consecutive days, with intraperitoneal administration of CBD (isolate CBD, THC-free, 5 mg/kg body weight, Canabidiol Ltd, Dublin, Ireland), first dose two hours after the second Poly(I:C) treatment and every other day for a total of 3 doses to the treatment group. Blood oxygen saturation was quantified via the carotid arteries using a portable pulse oximeter at study initiation (day 0) and once daily for the duration of the study. Mice were euthanized at study day nine. Blood and lung tissue were harvested and subjected to flow cytometry, immunofluorescence and histological analysis, as detailed above. All flow cytometry data were analysed using the FlowJo V10 software while immunofluorescence, and histological preparations were analysed and imaged by fluorescence and bright field microscopy. As for additional histological evaluation, Masson's Trichrome staining was used for the detection of collagen fibres in lung on formalin-fixed, paraffin-embedded sections. The collagen fibres stained in blue and the background is stained red. Sections were examined and analysed using bright field microscopy imaging.

[6] = blood, vs untreated counterparts, p<0.01
[7] = lung tissue, PIC+CBC vs sham or PIC
[8] = lung, vs untreated counterparts, p<0.01
[9] = lung tissue, CBD after Poly(I:C)
[10] = whole blood, CBD 5 mg/kg intraperitoneal, 3 doses, after Poly(I:C)

Chain of transient receptor potential (TRP) ankyrin 1-type (TRPA1) channels (Q6RI86 whole entry): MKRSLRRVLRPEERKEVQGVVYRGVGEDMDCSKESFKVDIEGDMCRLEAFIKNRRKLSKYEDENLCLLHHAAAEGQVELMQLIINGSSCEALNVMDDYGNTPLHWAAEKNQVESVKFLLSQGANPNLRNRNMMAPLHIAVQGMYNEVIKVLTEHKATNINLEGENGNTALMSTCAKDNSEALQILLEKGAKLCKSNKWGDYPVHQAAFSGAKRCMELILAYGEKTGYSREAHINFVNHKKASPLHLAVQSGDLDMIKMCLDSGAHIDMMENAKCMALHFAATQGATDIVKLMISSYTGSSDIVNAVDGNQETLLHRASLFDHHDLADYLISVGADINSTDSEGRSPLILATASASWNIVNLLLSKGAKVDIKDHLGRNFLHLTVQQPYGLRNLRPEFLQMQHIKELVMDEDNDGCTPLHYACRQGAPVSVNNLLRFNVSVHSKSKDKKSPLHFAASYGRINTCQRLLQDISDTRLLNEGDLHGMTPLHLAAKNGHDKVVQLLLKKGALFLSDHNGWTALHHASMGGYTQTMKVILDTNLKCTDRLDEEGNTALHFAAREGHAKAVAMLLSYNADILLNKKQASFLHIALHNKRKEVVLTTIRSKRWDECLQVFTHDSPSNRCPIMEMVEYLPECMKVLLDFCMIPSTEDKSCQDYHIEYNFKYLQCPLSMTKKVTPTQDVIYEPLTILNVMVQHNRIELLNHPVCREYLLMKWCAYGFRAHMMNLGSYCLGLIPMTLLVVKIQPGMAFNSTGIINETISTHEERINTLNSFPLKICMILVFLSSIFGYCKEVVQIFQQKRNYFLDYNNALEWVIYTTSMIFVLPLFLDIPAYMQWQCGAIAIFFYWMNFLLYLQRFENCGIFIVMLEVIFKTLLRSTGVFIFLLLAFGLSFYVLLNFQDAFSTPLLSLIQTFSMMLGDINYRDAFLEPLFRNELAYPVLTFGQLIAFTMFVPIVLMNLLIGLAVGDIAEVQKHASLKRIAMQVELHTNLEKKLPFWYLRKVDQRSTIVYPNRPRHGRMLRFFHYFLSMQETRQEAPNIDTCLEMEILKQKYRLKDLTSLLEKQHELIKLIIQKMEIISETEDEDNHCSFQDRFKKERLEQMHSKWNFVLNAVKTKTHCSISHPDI

| SMILES | activation of TRPA1 channels [1] | inhibition of endocannabinoid cellular reuptake [2] | inhibition of monoacylglycerol lipase (MAGL) [3] | increase in blood oxygen saturation ([4]; Poly(I:C) mice, CBC treated vs untreated PIC) | blood oxygen saturation after CBC treatment ([4]; Poly(I:C) mice, pulse oximetry, untreated PIC group 90%) | IFNγ expression level in blood (flow cytometry) [4, 6] | IL-6 expression level in blood (flow cytometry) [4, 6] | IL-17 expression level in blood (flow cytometry) [4, 6] | lung histology (H&E, Masson's trichrome): structural damage, hypertrophy and fibrosis ([4]; lung tissue, PIC+CBC vs PIC) | TRPA1 expression in lung tissue (immunohistochemistry) [4, 7] | TRPV1 expression in lung tissue (immunohistochemistry) [4, 7] | IFNγ expression level in lung (flow cytometry) [4, 8] | IL-6 expression level in lung (flow cytometry) [4, 8] | IL-17 expression level in lung (flow cytometry) [4, 8] | apelin expression in lung tissue (immunofluorescence) [5, 9] | lung histology (Masson's trichrome): inflammatory infiltrate, fibrosis, hypertrophy, pulmonary oedema [5, 9] | apelin expression in blood (flow cytometry) [5, 10] | blood T cells (flow cytometry) [5, 10] | blood neutrophils (flow cytometry) [5, 10] |
| --- | --- | --- | --- | --- | --- | --- | --- | --- | --- | --- | --- | --- | --- | --- | --- | --- | --- | --- | --- |
| CCCCCc1cc(O)c2c(c1)OC(C)(CCC=C(C)C)C=C2 (stereo not shown) [CBC, cannabichromene] | potent activator | inhibitor of endocannabinoid cellular reuptake | weak inhibitor | 8% | 98% | curtailed the expression levels | curtailed the expression levels | curtailed the expression levels | reduced hypertrophy and fibrosis | increased the level of expression | increased the level of expression | curtailed the expression levels | curtailed the expression levels | curtailed the expression levels |  |  |  |  |  |
| C=C(C)[C@@H]1CCC(C)=C[C@H]1c1c(O)cc(CCCCC)cc1O [CBD, cannabidiol] |  |  |  |  |  |  |  |  |  |  |  |  |  |  | increased apelin expression towards control levels; also recorded: normalized the Apelin expression | completely or partially abolished; also recorded: improved the structure towards the normal architecture | enhanced expression of apelin; also recorded: normalized the expression level of apelin; also recorded: attenuated these effects | returned decreased T cells and increased neutrophils towards the normal level | returned decreased T cells and increased neutrophils towards the normal level |
